We go through five compounds from patent US20260217683A1, “PYRIDAZINONE HETEROCYCLIC COMPOUND MYOSIN II INHIBITOR AND USE THEREOF” (Xizang Haisco Pharmaceutical Co., Ltd., priority 2023, published 2026).

Holding throughout (assay type): in vivo
Data set [1] is described as follows: Pharmacokinetic experiment in mice. Particulars: male, C57, po; mouse plasma, i.g. (10 mg/kg). The protocol:
1. Experimental animals: Male C57 mice, 22-25 g, 6 mice/compound. Purchased from Chengdu Ddossy Experimental Animals Co., Ltd.
2. Experimental design: On the day of the experiment, 12 C57 mice were randomly grouped according to their body weight. The animals were fasted with water available for 12 to 14 h one day before the administration and were fed 4 h after the administration.
Before and after the administration, 0.06 mL of blood was taken from the orbit of the animals under isoflurane anesthesia and placed in an EDTAK2 centrifuge tube. The blood was centrifuged at 5000 rpm and 4° C. for 10 min to collect the plasma. The blood collection time points for the intravenous group and intragastric administration group were: 0 m, 5 m, 15 min, 30 min, 1 h, 2 h, 4 h, 7 h and 24 h. Before analysis and detection, all samples were stored at −80° C., and a quantitative analysis of samples was performed using LC-MS/MS.

The subject of data set [2] is B10-Dmd-KO (Mdx) mice. Kind of data set: PK/PD detection of mouse model with Dmd (Mdx) gene mutation, plasma CK. Particulars: oral. An excerpt: Experimental objective: Bl0-Dmd-KO (Mdx) mice are DMD function-deficient mice caused by frameshift mutations in the Dmd gene. […] This study has investigated the effects on CK and TNNI2 in the plasma of Mdx mice upon administration of compounds.
Experimental animal: B10-Dmd-KO (C57BL/10ScSnJGpt-Dmdem3Cd4/Gpt), male, 5-7 weeks old, weight 28-30 g, supplier. Gempharmatech Co., Ltd.;
• 1) Running training (D-5): Mdx mice underwent running training in batches. The training parameters were set as three time periods, i.e., the initial speed of 4 m/min for 2 min, then 8 m/min for 8 min, and finally 12 m/min for 30 min, a total of 40 min; • 2) Gripping strength test (D-2): each round was measured three times, and three rounds were performed; • 3) Grouping (DO): the animals were anesthetized by inhalation of isoflurane (concentration: 5%, gas flow rate: 1 L/min), and then a capillary tube was used to collect blood (about 150 μL) via orbital venous sinus into a 0.6 mL centrifuge tube containing EDTA anticoagulant, the plasma wad separated, and the CK value was detected, which was used as the basic value for grouping; • 4) Administration, grasping, and blood collection (D1): The compounds were dissolved in the vehicle 5% DMA+5% HS-15+90% Saline, then orally administered to the mice, and then the grip strength test was conducted (three tests per round for three rounds). […] A capillary tube was used to collect blood (>300 μL) via orbital venous sinus into a 0.6 mL centrifuge tube containing EDTA anticoagulant, and then the animals were euthanized to collect the tibialis anterior muscle (left leg), soleus muscle (both legs) and cardiac muscle, which were weighed and recorded, placed in a homogenization tube and quickly frozen in liquid nitrogen, then stored at −80° C.
Sample processing: After the whole blood anticoagulated with EDTA was centrifuged at 3000 rpm and 4° C. for 10 min, the […] was collected and subpackaged. The separated […] was subjected to a biochemical analyzer (Fully automatic biochemical analyzer Roche C311) to detect the CK value and TNN12 value (Mouse TNNI2 Elisa Kit, ABBEXA, E2207370Y); The […] concentration of the compound and the drug concentration in tibialis anterior muscle, soleus muscle and cardiac muscle were measured by LC/MS instrument.

The nature of data set [3]: Pharmacokinetic experiment of beagle dogs. The conditions noted are these: male, dog, plasma, oral, beagles, intragastric 3 mg/kg vs intravenous 1 mg/kg, read-out: bioavailability (F). Here is the method:
1. Experimental animals: male beagle dogs, about 8-11 kg, 6 beagle dogs/compound, purchased from Beijing Marshall Biotechnology Co., Ltd.
2. Experimental method: On the day of the test, (6×number of test compounds (n)) beagles were randomly divided into groups according to body weight. The animals were fasted with water available for 12 to 14 h one day before the administration and were fed 4 h after the administration. Administration was performed as per Table 6.
• Before and after the administration, 1 mL of blood was taken from the jugular veins or limb veins, and placed in an EDTAK2 centrifuge tube. Centrifugation was performed at 5000 rpm at 4° C. for 10 min, and plasma was collected. The blood collection time points for the intravenous group and intragastric administration group were: 0 min, 5 min, 15 min, 30 min, 1 h, 2 h, 4 h, 6 h, 8 h, 10 h, 12 h, 24 h, 48 h, 72 h, and 96 h. Before analysis and detection, all samples were stored at −80° C. The samples were analyzed quantitatively by LC-MS/MS.

Setting [4] is: 10 mpk, QD administration for 7 days.

By AUC(0-t) is commonly meant the area under the concentration-time curve up to a stated or last time point. Usually Cmax stands for the peak of the concentration-time curve. By half-life is commonly meant the time in which the quantity being followed falls by half. Higher therefore signals slow loss. In data set [1], `O=C1CCc2ccc(Cn3nc(-c4cnc(OCC(F)(F)F)nc4)ccc3=O)cc21` [Compound 88] showed an AUC(0-t) of 2.32 µg·h/mL, a Cmax of 0.324 µg/mL and a half-life of 102 h. Also, in data set [2] (setting [4]), the “Inhibition rate of CK values (sampled 24 h after (last) dose)” value (from here on “Inhibition rate of CK values”) stood at 91.6%.
Regarding `O=C1CCc2ccc(Cn3nc(-c4cnc(O[C@H]5CCOC5)nc4)ccc3=O)cc21` [Compound 150], the half-life in data set [1] was 40.7 h.
For `O=C1CCc2ccc(Cn3nc(-c4cnc(OCC(F)F)nc4)ccc3=O)cc21` [Compound 131], the half-life in data set [1] was 91.1 h. The bioavailability in data set [3] came out at 112%. Besides, the “Inhibition rate of CK values” value in data set [2] (setting [4]) came to 94.1%.
`O=C1CCc2ccc(Cn3nc(-c4cnc(O[C@@H]5CCOC5)nc4)ccc3=O)cc21` [Compound 149] showed a half-life in data set [1] of 52.3 h.
With `O=c1ccc(-c2cnc(OCC(F)(F)F)nc2)nn1Cc1ccc2c(c1)CCC2` [Compound 57], in data set [2] (10 mpk single administration), the “Inhibition rate of CK values” value was found to be 108.2%.
